# In US10280197B2, “Discovery of the first selective C5A receptor 2 (C5L2/C5AR2) ligands” (The Regents of the University of California, priority 2015, dated 2019):
# Tests used:
# [1] = system: C5a-induced neutrophil mobilization; experiment: C5a-induced neutrophil mobilization in C5aR2-/- mice; format: in vivo, C5aR2-/- mice on a C57BL/6J background; conditions: P32 3 mg/kg i.v. with C5a 50 μg/kg, 30 min
# Protocol: (§1) FIG. 6 is a panel of graphs showing that P32 inhibits C5a-induced neutrophil mobilization in vivo in a C5aR2 dependent manner. Neutrophil mobilization quantified 30 min after i.v. injection of PBS, C5a (50 μg/kg), or P32 (3 mg/kg) with and without C5a present into the femoral vein of either C57BL/6J wild-type (6A) or C5aR2^−/− (6B) on a C57BL/6J background mice. Total circulating leukocyte counts were determined from blood smears and total white blood cell counts using a hemocytometer. Data are representative from at least 6 mice per treatment group and blood smears in triplicate (n=6). Error bars represent SEM. * P<0.05, *** P<0.001 by one-way ANOVA followed by Dunnett's post hoc test
# (§2) To further explore the selectivity of the ligands P32 was tested in a mouse model of C5a-induced neutrophil mobilization (FIG. 6). […] Assuming a mouse blood volume of 2 mL for a 25 g mouse, a concentration of 3 mg/kg would result in Cmax blood concentrations of ˜50 uM, a dose within the active range of this compound from our in vitro studies
# [2] = system: C5a-induced neutrophil mobilization; experiment: C5a-induced neutrophil mobilization in wild-type mice; format: in vivo, C57BL/6J wild-type mice; conditions: P32 3 mg/kg i.v. with C5a 50 μg/kg, 30 min
# Protocol: as §1, §2
substance,measurement,setting,value
"Ac-RHYPYWR-OH [Peptide P32, Ac-RHYPYWR-OH]",inhibition of C5a-induced neutrophil mobilization,[1],attenuated
same,inhibition of C5a-induced neutrophil mobilization,[2],significantly inhibit
